Test results: patent US5409948A (priority 1992, dated 1995)
“Also recorded” adds a separate entry of the source.

Key:
cholinesterase (ChE) = conditions: cited from earlier work
[1] = system: patients with Alzheimer's disease; conditions: human, in vivo; cited from earlier work
[2] = system: scopolamine-induced impairment in learning performance of rats; design: species or system male Fischer-344 rats; conditions: rat, in vivo
plasma AChE = assay type: in vivo, Fischer-344 rats
[3] = system: brain and plasma AChE and BChE; conditions: cited from earlier work
[4] = in vivo; cited from earlier work
neuromuscular AChR = conditions: cited from earlier work
[5] = system: memory consolidation in mice; conditions: mouse, in vivo; cited from earlier work
[6] = system: performance deficits induced by scopolamine; conditions: in vivo; cited from earlier work
[7] = system: scopolamine-induced impairment in learning performance of rats; conditions: rat, in vivo; cited from earlier work
cholinesterase = conditions: cited from earlier work
acetylcholine in brain = conditions: in vivo; cited from earlier work
[8] = molecular target: human acetylcholinesterase (AChE); conditions: read-out: IC50 against human AChE; cited from earlier work
[9] = molecular target: human butyrylcholinesterase (BChE); conditions: read-out: IC50 against human BChE; cited from earlier work
[10] = rat, in vivo
[11] = in vivo
[12] = system: human acetylcholinesterase (AChE); assay type: biochemical

CNC(=O)Oc1ccc2c(c1)[C@@]1(C)CCN(C)[C@H]1N2C [(+)-physostigmine]
inhibition of cholinesterase (cholinesterase (ChE)): negligible inhibition; also recorded: negligible ChE inhibitory activity

CNC(=O)Oc1ccc2c(c1)[C@]1(C)CCN(C)[C@@H]1N2C [Physostigmine]
pharmacological half life in patients [1]: short pharmacological half life
activity in 14-unit T-maze model, in words [2]: no significant activity in this model
AChE inhibition at 60 minutes (plasma AChE; rat, in vivo): negligible
AChE inhibition, immediate (plasma AChE; rat, in vivo): approximately 50%
IC50 of brain vs plasma AChE and BChE [3]: similar
LD50 [4]: 0.6 mg/kg
properties at the neuromuscular AChR (neuromuscular AChR): blocking properties as well as agonist properties

CN1[C@@H]2C[C@@H](OC(=O)[C@H](CO)c3ccccc3)C[C@H]1[C@@H]1O[C@@H]12 [SCOP, reference compound]
all five measures of the maze task [2]: significantly worse performance in all five measures of the maze task

Nc1c2c(nc3ccccc13)CCCC2 [THA, tetrahydroaminoacridine]
toxicity in Alzheimer's patients [1]: causes toxicity

CCCCCCCNC(=O)Oc1ccc2c(c1)[C@]1(C)CCN(C)[C@@H]1N2C [heptyl-Phy]
memory consolidation [5]: facilitates memory consolidation in mice
activity in 14-unit T-maze model, in words [2]: inferior to phenserine
mean errors per trial at each block of three trials [2]: reduced error performance compared to the SCOP group
mean errors per trial for 15 trials [2]: significantly (P<0.05) better performance than the SCOP group
ratio of alternation errors per trial to opportunities [2]: no significant effect
performance deficits induced by scopolamine [6]: reverses the performance deficits induced by scopolamine
alternation error performance [7]: lack of improvement
learning impairment of SCOP-treated rats [7]: failed to ameliorate the learning impairment
number of errors [7]: significantly reduced the number of errors
scopolamine-induced learning impairment of rats [7]: attenuated the scopolamine-induced learning impairment
inhibitory action on cholinesterase vs parent compound (cholinesterase): longer inhibitory action on cholinesterase
toxicity vs parent compound [4]: less toxicity than the parent compound
increases in acetylcholine in brain vs parent compound (acetylcholine in brain): more persistent increases in acetylcholine in brain

CN1CC[C@@]2(C)c3cc(OC(=O)Nc4ccccc4)ccc3N(C)[C@@H]12 [phenserine, (-)-N-phenylcarbamoyl eseroline]
IC50 [8]: 24 ± 6 nM
IC50 [9]: 1300 ± 8.5 nM
SCOP-induced learning impairment [2]: significantly attenuated the SCOP-induced learning impairment
alternation error ratio [2]: only 10.0 and 1.5 mg/kg doses of phenserine improved alternation error performance at blocks 4 and 5 and block 5, respectively; also recorded: only the 10.0 and 1.5 mg/kg doses of phenserine reduced the ratio significantly at blocks 4 and 5 and block 5, respectively
error performance [2]: all but the 7.5 mg/kg dose of phenserine significantly ameliorated error performance
error performance at blocks 4 and 5 [2]: improved error performance at maze training blocks 4 and 5 except the 7.5 mg/kg dose
number of errors at block 4 [2]: reduced significantly at block 4 by all but the 7.5 mg/kg dose
runtime [2]: all but the 7.5 mg/kg dose of phenserine significantly ameliorated error performance, runtime
shock duration [2]: all but the 7.5 mg/kg dose of phenserine significantly ameliorated error performance, runtime, shock frequency and shock duration
shock frequency [2]: all but the 7.5 mg/kg dose of phenserine significantly ameliorated error performance, runtime, shock frequency
therapeutic window [2]: wide therapeutic window
time after i.p. administration at which improvement of learning performance was observed ([2]; ip): more than 1 hour
AChE inhibition at 8 hours (plasma AChE; at 8 hours): 43.0%
AChE inhibition and its duration, in words (plasma AChE; rat, in vivo): long, steady state inhibition of AChE at very low and non-toxic doses
AChE inhibition compared to physostigmine (plasma AChE; rat, in vivo): dramatically higher inhibition of AChE at a lower dose
duration of high and relatively constant AChE inhibition (plasma AChE; rat, in vivo): more than 8 hours
maximum AChE inhibition (plasma AChE; rat, in vivo): 73.5%
activity of animals [10]: seemed less active than at other doses
behavior of animals [10]: very aggressive and difficult to handle
peripheral cholinergic effects, such as salivation and diarrhea [10]: not noticed at any doses tested
side effects [10]: chewing, grooming, and wet dog shakes
toxic side effects without peripheral cholinergic inhibitors [10]: large doses can be administered without toxic side effects
LD50 (in words) [11]: substantially higher than that of physostigmine itself
central tremor [11]: a slight central tremor is evident
toxicity or deaths [11]: have not been associated with toxicity or deaths
selectivity of anticholinesterase action (AChE vs BChE) [12]: high selectivity of anticholinesterase action
